Measurements as given in PubChem BioAssay (NCI).
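Where inhibition never reached the appropriate level, the endpoint shown equals the highest concentration tested. Otherwise, values were interpolated linearly from a five-concentration, 48-hour dose response in 96-well plates. GI50: concentration for 50% inhibition of growth. The concentration for full growth arrest is given as TGI.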

Columns and labels:
Assay in all cases: NCI tumour cell line growth inhibition, 48 h
EKVX NSCLC = tested on: EKVX NSCLC
SNB-19 CNS = tested on: SNB-19 CNS
SK-MEL-5 melanoma = tested on: SK-MEL-5 melanoma
SNB-75 CNS = tested on: SNB-75 CNS
LOX IMVI melanoma = tested on: LOX IMVI melanoma
UACC-257 melanoma = tested on: UACC-257 melanoma
U251 CNS = tested on: U251 CNS
HOP-62 NSCLC = tested on: HOP-62 NSCLC
NCI-H460 lung = tested on: NCI-H460 lung
SF-295 CNS = tested on: SF-295 CNS

Row | SMILES | TGI (EKVX NSCLC) | TGI (SNB-19 CNS) | TGI (SK-MEL-5 melanoma) | TGI (SNB-75 CNS) | TGI (LOX IMVI melanoma) | TGI (UACC-257 melanoma) | TGI (U251 CNS) | TGI (HOP-62 NSCLC) | TGI (NCI-H460 lung) | TGI (SF-295 CNS) | GI50 (EKVX NSCLC) | GI50 (SNB-19 CNS) | GI50 (SK-MEL-5 melanoma) | GI50 (SNB-75 CNS) | GI50 (LOX IMVI melanoma) | GI50 (UACC-257 melanoma) | GI50 (U251 CNS) | GI50 (HOP-62 NSCLC) | GI50 (NCI-H460 lung) | GI50 (SF-295 CNS)
1 | COc1cccc(CSCC(=O)O)c1 | > 100 µM | > 100 µM | > 100 µM | > 100 µM | > 100 µM | > 100 µM | > 100 µM | > 100 µM | > 100 µM | > 100 µM | – | – | – | – | – | – | – | – | – | –
2 | COC(=O)C1OC2(CCCC3CC32)O[C@H]1C(=O)OC (stereo not given in full) | > 100 µM | > 100 µM | – | > 100 µM | > 100 µM | > 100 µM | > 100 µM | > 100 µM | > 100 µM | > 100 µM | – | – | – | – | – | – | – | – | – | –
3 | COc1cccc(-c2nn(-c3ccccc3)cc2-c2ccnc(NCCNC(=O)Nc3cccc(C(F)(F)F)c3)c2)c1 | 6.65 µM | 11.9 µM | 3.15 µM | 12.5 µM | 2.99 µM | 4.81 µM | 5.26 µM | 5.63 µM | 3.85 µM | 3.28 µM | 2 µM | 3.12 µM | 1.73 µM | 1.62 µM | 1.64 µM | 2.14 µM | 2.28 µM | 2.52 µM | 2 µM | 1.66 µM
4 | CC1=CC(=O)C(C(C)C)=CC1=Nc1cc(Br)c(O)c(Br)c1 | 36 µM | 26.1 µM | 10.7 µM | 21.6 µM | 20.4 µM | 33.1 µM | 19.1 µM | 45.2 µM | 14.4 µM | 5.53 µM | 4.51 µM | 9.95 µM | 3.15 µM | 4.22 µM | 5.04 µM | 14.7 µM | 4.72 µM | 6.29 µM | 3.53 µM | 1.4 µM
5 | CCOC(=O)c1c(C)n(Cc2ccccc2)c2c1cc(O)c1[nH]c(Cc3ccccc3)nc12 | > 79.5 µM | > 67.9 µM | 39.1 µM | 42.3 µM | > 67.8 µM | > 70.2 µM | 33 µM | > 85.6 µM | > 100 µM | 44.4 µM | 25.5 µM | 23.6 µM | 9.89 µM | 8.04 µM | 13.8 µM | 16.2 µM | 7.46 µM | 17.4 µM | 4.23 µM | 11.3 µM
6 | CN(COC(=O)c1ccccc1)c1nc(N(C)COC(=O)c2ccccc2)nc(N(C)COC(=O)c2ccccc2)n1 | > 100 µM | 51.7 µM | > 100 µM | > 100 µM | > 100 µM | > 100 µM | > 83.7 µM | 40.6 µM | > 100 µM | > 84.9 µM | – | – | – | – | – | – | – | – | – | –
7 | COc1ccc(/C=c2\sc3n(c2=O)C2C(NN=3)N(C)C(=O)N2C)cc1 (stereo not given) | > 100 µM | > 100 µM | > 100 µM | 6.77 µM | > 100 µM | > 100 µM | > 100 µM | > 100 µM | > 100 µM | > 24.5 µM | 1.72 µM | 1.3 µM | 0.66 µM | 1.17 µM | 1.63 µM | > 100 µM | 1.44 µM | 1.29 µM | 0.933 µM | 0.917 µM
8 | N#Cc1c(Br)n(C2OC(CO)C(O)C2O)c2ncnc(N)c12 (stereo not given) | 74.7 µM | > 75.9 µM | 7 µM | 30.7 µM | 16.4 µM | 38.5 µM | > 100 µM | > 100 µM | 4.56 µM | 30.7 µM | 4.62 µM | 4.35 µM | 2.68 µM | 3.98 µM | 1.13 µM | 4.72 µM | 1.85 µM | 4.09 µM | 0.574 µM | 2.07 µM
9 | O=[N+]([O-])c1ccc(C2CC(c3ccccc3Cl)=Nc3ccccc3S2=O)cc1 (stereo not given) | 35.4 µM | 12.4 µM | 14.2 µM | 21.4 µM | 3.79 µM | 48.3 µM | – | 23.4 µM | 17.9 µM | 15.3 µM | – | – | – | – | – | – | – | – | – | –
10 | CCCCCCCCCCCCCCCCNCCCN(C)CCCN | 42.8 µM | 31.5 µM | 31.4 µM | 34.2 µM | 42 µM | 40.4 µM | 31.8 µM | – | 34.1 µM | 33.4 µM | – | – | – | – | – | – | – | – | – | –
11 | O=C(CSc1ncn[nH]1)C[P+](c1ccccc1)(c1ccccc1)c1ccccc1 | > 100 µM | > 100 µM | > 100 µM | > 100 µM | > 100 µM | > 100 µM | – | > 100 µM | > 100 µM | > 100 µM | – | – | – | – | – | – | – | – | – | –
12 | CN(C)c1ccc(/C=C/c2ccc(/C=C/c3ccc(N(C)C)cc3)cc2)cc1 | > 100 µM | > 100 µM | > 100 µM | > 100 µM | > 100 µM | > 100 µM | > 100 µM | – | > 100 µM | > 100 µM | – | – | – | – | – | – | – | – | – | –
